Where only a bound is given, the exact number is not on record here.

The target of one assay is Sphingosine 1-phosphate receptor 1 (Homo sapiens, UniProt P21453). Put plainly: S1P1 agonism potentiation – cell-based, potentiator mode, 60K MLSMR set, dose response (AID 466).
Chain of Sphingosine 1-phosphate receptor 1 (P21453 whole entry): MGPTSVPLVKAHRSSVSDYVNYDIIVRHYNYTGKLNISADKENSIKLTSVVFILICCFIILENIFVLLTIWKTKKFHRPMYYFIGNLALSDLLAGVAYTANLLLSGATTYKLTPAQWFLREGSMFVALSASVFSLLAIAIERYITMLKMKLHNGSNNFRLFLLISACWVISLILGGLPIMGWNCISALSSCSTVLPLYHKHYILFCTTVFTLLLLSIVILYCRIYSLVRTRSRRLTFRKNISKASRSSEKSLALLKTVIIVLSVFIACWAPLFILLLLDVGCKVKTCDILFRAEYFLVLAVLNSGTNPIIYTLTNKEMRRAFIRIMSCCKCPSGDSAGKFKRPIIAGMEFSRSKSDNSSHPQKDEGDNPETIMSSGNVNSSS
Details: not given
For `Fc1ccc2[nH]c3c(N4CCN(Cc5ccc6c(c5)OCO6)CC4)ncnc3c2c1` [4-[4-(1,3-benzodioxol-5-ylmethyl)-1-piperazinyl]-8-fluoro-5H-pyrimido[5,4-b]indole], the EC50 turned out to be 2 µM.

Take `Cc1cc(C(=O)CSc2nnnn2C)c(C)n1-c1cccc(F)c1` [1-[1-(3-fluorophenyl)-2,5-dimethyl-3-pyrrolyl]-2-[(1-methyl-5-tetrazolyl)thio]ethanone]: the EC50 is 1.88 µM.

Take `Cc1ccc(O)c(NC(=O)CCC2CCCCC2)c1` [3-cyclohexyl-N-(2-hydroxy-5-methyl-phenyl)propionamide]: the EC50 was > 95 µM.

Take `Cc1nn(Cc2ccc(Cl)c(Cl)c2)c(C)c1NC(=O)c1cc(CC(C)C)on1` [MLS000116412]: the EC50 turned out to be 9.37 µM.

On to `Clc1ccc(OCCN2CCN(c3ncnc4sccc34)CC2)cc1` [4-[4-[2-(4-chloranylphenoxy)ethyl]piperazin-1-yl]thieno[2,3-d]pyrimidine], for which the EC50 was 0.108 µM.

Regarding `Cc1csc(NC(=O)c2nc(-c3ccccc3)n(-c3ccccc3)n2)n1` [MLS000058347], the EC50 amounted to 9.69 µM.

With `O=S(=O)(CCSc1ccccn1)c1nc2ccccc2s1` [2-(2-pyridin-2-ylsulfanylethylsulfonyl)-1,3-benzothiazole], the EC50 amounted to 9.83 µM.

For `CC1(C)CC(=O)C(=CNc2ccc3[nH]ncc3c2)C(=O)C1` [SMR000111453], the EC50 is 6.01 µM.

On to `O=C(C1CCC1)N1CCc2cc(S(=O)(=O)Nc3ccc4c(c3)OCCO4)ccc21` [1-(cyclobutanecarbonyl)-N-(2,3-dihydro-1,4-benzodioxin-6-yl)-2,3-dihydroindole-5-sulfonamide], for which the EC50 was > 30 µM.

For the molecule `CC(C)c1cc(C(=O)N2CCN(C(c3ccccc3)c3ccccc3)CC2)no1` [(4-benzhydrylpiperazin-1-yl)-(5-propan-2-yl-1,2-oxazol-3-yl)methanone], the EC50 came out at 8.42 µM.

Regarding `O=C(Nc1nc2c(s1)CCCC2)c1cc2n(n1)C(C(F)(F)F)CC(C1CC1)N2` (stereo not given) [5-Cyclopropyl-7-trifluoromethyl-4,5,6,7-tetrahydro-pyrazolo[1,5-a]pyrimidine-2-carboxylic acid (4,5,6,7-tetrahydro-benzothiazol-2-yl)-amide], the EC50 turned out to be 0.908 µM.

Take `Cc1nc2ccc3nc(NC(=O)C4COc5ccccc5O4)sc3c2s1` (stereo not given) [MLS000100909]: the EC50 stood at 4.01 µM.

The assay is the same for the next values; noted with them: inactive by the depositor's call.
As to `Cc1ccc(Cl)cc1N1CCN(C(=O)COc2ccc(S(=O)(=O)NC(C)C)cc2)CC1` [4-[2-[4-(5-chloranyl-2-methyl-phenyl)piperazin-1-yl]-2-oxidanylidene-ethoxy]-N-propan-2-yl-benzenesulfonamide], the EC50 was found to be 13.1 µM.

As to `c1ccc(CSc2nnc(-c3cccs3)o2)cc1` [2-(benzylthio)-5-(2-thienyl)-1,3,4-oxadiazole], the EC50 was found to be 20.4 µM.

As to `Nc1c(C(=O)NC2CCCC2)sc2nc(-c3cccs3)ccc12` [3-Amino-6-thiophen-2-yl-thieno[2,3-b]pyridine-2-carboxylic acid cyclopentylamide], the EC50 worked out at 13.6 µM.

Turning to `COc1ccc2ncn(-c3ccccc3)c2c1` [6-methoxy-1-phenyl-1H-1,3-benzodiazole], the EC50 worked out at 23.6 µM.

Turning to `O=C(OC1CCCCC1)c1ccc(NC(=O)c2ccco2)cc1` [4-(2-furoylamino)benzoic acid cyclohexyl ester], the EC50 stood at 12.2 µM.

As to `CC(C)Cn1c(=O)c(C(=O)Nc2ccccc2S(N)(=O)=O)c(O)c2ccccc21` [1-(2-methylpropyl)-2-oxidanyl-4-oxidanylidene-N-(2-sulfamoylphenyl)quinoline-3-carboxamide], the EC50 was 14.4 µM.

For `Cc1nc2ncnn2c(N2CCN(c3cccc(C(F)(F)F)c3)CC2)c1C` [5,6-Dimethyl-7-[4-(3-trifluoromethyl-phenyl)-piperazin-1-yl]-[1,2,4]triazolo[1,5-a]pyrimidine], the EC50 turned out to be 15.4 µM.

Turning to `CCCn1c(NC(=O)c2cccc(S(=O)(=O)N3CCCC3)c2)nc2ccccc21` [MLS000057540], the EC50 was determined as 10.3 µM.

By EC50 is commonly meant the midpoint of the concentration-response curve.

The values are drawn from BindingDB's records for doi:10.7270/Q2ZC817P (The Scripps Research Institute Molecular Screening Center, 2007).
